Source: article PMC9144902, “Metal(II) Complexes of the Fluoroquinolone Fleroxacin: Synthesis, Characterization and Biological Profile” (Pharmaceutics, 2022)

How the values were obtained:
[1] = system: Bacillus subtilis ATCC 6633; experiment: Antimicrobial activity, MIC determination; format: cell-based; conditions: B. subtilis; 24-h incubation, 37°C
Description: (§1) The in vitro antimicrobial activity of the compounds was evaluated by determining the minimum inhibitory concentration (MIC) against the Gram-positive microorganisms Staphylococcus aureus ATCC 6538 (S. aureus) and Bacillus subtilis ATCC 6633 (B. subtilis) and the Gram-negative microorganism Xanthomonas campestris ATCC 1395 (X. campestris). The affinity of the compounds for bovine serum albumin (BSA) and human serum albumin (HSA) was studied by fluorescence emission spectroscopy, and the corresponding binding constants were determined. Furthermore, the interaction of the compounds with calf-thymus DNA (CT DNA) was investigated to determine the possible mode of interaction by the following methods: (i) UV–vis spectroscopy (where the DNA-binding constants of the complexes (Kb) were also determined), (ii) DNA-viscosity measurements, (iii) cyclic voltammetry and (iv) competitive DNA-binding studies with the classic intercalator ethidium bromide (EB) performed by fluorescence emission spectroscopy.
(§2) Three bacterial strains, one Gram(−) (X. campestris) and two Gram(+) (S. aureus and B. subtilis), were used in order to test the antimicrobial activity of the compounds.
(§3) The antimicrobial activity of the compounds was evaluated b y determining their respective MIC values towards one Gram–( –) (Xanthomonas campestris ATCC 1395 (X. campestris)) and two Gram–(+) (Staphylococcus aureus ATCC 6538 (S. aureus) and Bacillus subtilis ATCC 6633 (B. subtilis)) bacterial species. Cultures of these microbial strains were grown on a rich selective agar medium and stored at 4°C. The selective media used were Nutrient Agar or Broth for B. subtilis and S. aureus, and Yeast Mold Agar or Broth for X. campestris . Cells picked from the surface of the stored cultures were used to initiate liquid pre–cultures of the same selective medium at an initial turbidity of roughl y 1 McFarland unit. Pre–cultures were incubated for 24 h in a rotar y sh aking incubator and subsequently the y were used to inoculate the test cultures used for the determination of MIC at an initial turbidity of 0.5 McFarland units. The test cultures consisted of Mueller–Hinton broth (Deben Diagnostics Ltd) containing different concentrations of the compounds. Different concentrations were achieved as follows: the compounds were freshly dissolved in DMSO to a concentration of 1 mg/mL and they were diluted with DMSO, using the method of progressive double dilution. Therefore, working solutions with decreasing concentrations of the compounds under investigation were achieved. The working solutions were subsequently diluted to the final desired concentration b y addition to the growth medium at a proportion of 2:98. MIC values were determined as the lowest concentrations of the tested compounds that inhibited visible growth of each respective organism after a 24–h incubation [ S1]. Bacterial growth was determined b y measuring the turbidit y of appropriatel y diluted cultures at 600 nm with reference to equall y diluted sterile growth medium and the inhibition achieved was calculated b y comparing the turbidit y of each culture to the average of the turbidit y of three non–inhibited cultures. All test cultures were grown in triplicates and for the determination of MIC, growth had to be inhibited in at least two cultures of the triplicate. In cubation temperatur e at all stages was 37°C ex cept for X. campestris t h at was cultivated at 28°C [S2]. […]
(§4) The fluorescence spectra of the compounds were recorded under the same experimental conditions and presented a low–intensity emission band in the region 405–410 nm .

[2] = system: Staphylococcus aureus ATCC 6538; experiment: Antimicrobial activity, MIC determination; format: cell-based; conditions: S. aureus; 24-h incubation, 37°C
Description: as §1, §2, §3, §4

[3] = system: Xanthomonas campestris ATCC 1395; experiment: Antimicrobial activity, MIC determination; format: cell-based; conditions: X. campestris; 24-h incubation, 28°C
Description: as §1, §2, §3, §4

[4] = biological target: T1, bovine serum albumin (BSA) (Bos taurus, UniProt P02769); experiment: Albumin binding by tryptophan fluorescence emission quenching; conditions: for K(BSA), BSA-binding constant / kq(BSA), BSA-quenching constant: BSA 3 μM; for K(BSA), BSA-binding constant: buffer pH 7.0, Scatchard equation; for kq(BSA), BSA-quenching constant: buffer pH 7.0, λexc 295 nm, Stern–Volmer, τ0 = 10^–8 s; for BSA fluorescence, % of the initial fluorescence intensity (I/Io): λem,max = 342 nm, final value of titration (Figure S11)
T1 construct: purchased
Description: (§5) Serum albumins (Sas) are the most abundant serum proteins and play a role in the circulatory system, primarily in the transport of drugs and other bioactive small molecules through the bloodstream.
(§6) The SA-quenching constants (kq) for the compounds (Table 5) were calculated with the Stern–Volmer quenching equation (Equations (S2) and (S3)).
(§7) Albumin-binding constants (K) were calculated using the Scatchard equation (Equation (S4)). […]
(§8) S2. Interaction with serum albumins
(§9) The albumin–binding study for the compounds was carried out b y fluorescence emission

[5] = biological target: T2, human serum albumin (HSA) (Homo sapiens, UniProt P02768); experiment: as above; conditions: for K(HSA), HSA-binding constant / kq(HSA), HSA-quenching constant: HSA 3 μM; for K(HSA), HSA-binding constant: buffer pH 7.0, Scatchard equation; for kq(HSA), HSA-quenching constant: buffer pH 7.0, λexc 295 nm, Stern–Volmer, τ0 = 10^–8 s; for HSA fluorescence, % of the initial fluorescence intensity (I/Io): λem,max = 351 nm, final value of titration (Figure S10)
T2 construct: purchased
Description: as §5, §6, §7, §8, §9

T1 sequence (P02769 25-607): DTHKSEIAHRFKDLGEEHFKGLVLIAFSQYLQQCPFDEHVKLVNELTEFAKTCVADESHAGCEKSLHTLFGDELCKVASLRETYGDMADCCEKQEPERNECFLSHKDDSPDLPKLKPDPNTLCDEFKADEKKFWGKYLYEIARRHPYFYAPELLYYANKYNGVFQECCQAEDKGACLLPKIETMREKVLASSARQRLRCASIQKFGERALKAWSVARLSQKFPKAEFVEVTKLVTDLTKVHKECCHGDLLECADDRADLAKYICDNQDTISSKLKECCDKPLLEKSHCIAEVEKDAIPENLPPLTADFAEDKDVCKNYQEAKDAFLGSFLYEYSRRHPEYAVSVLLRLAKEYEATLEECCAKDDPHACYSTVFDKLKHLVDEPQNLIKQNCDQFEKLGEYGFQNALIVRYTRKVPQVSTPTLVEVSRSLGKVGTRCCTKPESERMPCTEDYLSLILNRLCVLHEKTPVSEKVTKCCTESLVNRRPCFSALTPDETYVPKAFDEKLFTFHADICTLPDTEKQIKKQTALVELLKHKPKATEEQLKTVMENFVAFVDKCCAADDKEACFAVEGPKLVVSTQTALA
T2 sequence (P02768 25-609): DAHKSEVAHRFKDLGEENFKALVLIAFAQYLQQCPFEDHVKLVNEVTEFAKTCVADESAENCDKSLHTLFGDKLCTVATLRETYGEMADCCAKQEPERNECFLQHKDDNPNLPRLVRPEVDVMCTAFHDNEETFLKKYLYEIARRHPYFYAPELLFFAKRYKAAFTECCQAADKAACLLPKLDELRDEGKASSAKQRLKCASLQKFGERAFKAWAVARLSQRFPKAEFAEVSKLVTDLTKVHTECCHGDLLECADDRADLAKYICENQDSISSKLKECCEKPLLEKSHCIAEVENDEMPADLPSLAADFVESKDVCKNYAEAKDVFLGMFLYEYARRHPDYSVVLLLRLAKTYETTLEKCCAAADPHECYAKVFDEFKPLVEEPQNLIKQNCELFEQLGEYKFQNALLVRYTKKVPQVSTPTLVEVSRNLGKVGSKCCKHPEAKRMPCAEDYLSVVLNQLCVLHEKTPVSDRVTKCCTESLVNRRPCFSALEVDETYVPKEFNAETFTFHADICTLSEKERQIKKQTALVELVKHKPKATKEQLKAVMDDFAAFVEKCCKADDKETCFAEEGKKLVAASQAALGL

| Structure (SMILES) | MIC [1] | MIC (values in parentheses) [1] | MIC [2] | MIC (values in parentheses) [2] | MIC [3] | MIC (values in parentheses) [3] | K(BSA), BSA-binding constant [4] | kq(BSA), BSA-quenching constant [4] | BSA fluorescence, % of the initial fluorescence intensity (I/Io) [4] | K(HSA), HSA-binding constant [5] | kq(HSA), HSA-quenching constant [5] | HSA fluorescence, % of the initial fluorescence intensity (I/Io) [5] |
| --- | --- | --- | --- | --- | --- | --- | --- | --- | --- | --- | --- | --- |
| CN1CCN(c2c(F)cc3c(=O)c(C(=O)[O-])cn(CCF)c3c2F)CC1.CN1CCN(c2c(F)cc3c(=O)c(C(=O)[O-])cn(CCF)c3c2F)CC1.[Ni+2].c1cnc2c(c1)ccc1cccnc12 [complex 19, [Ni(flrx)2(phen)]] | 8 µg/mL | 8.2 µM | 8 µg/mL | 8.2 µM | 16 µg/mL | 16.4 µM | 8.01(±0.28) × 10^4 M^−1 | 1.39(±0.04) × 10^13 M^−1s^−1 | 25.6% | 6.65(±0.15) × 10^4 M^−1 | 6.67(±0.18) × 10^12 M^−1s^−1 | 43.9% |
| CN1CCN(c2c(F)cc3c(=O)c(C(=O)[O-])cn(CCF)c3c2F)CC1.CN1CCN(c2c(F)cc3c(=O)c(C(=O)[O-])cn(CCF)c3c2F)CC1.CO.CO.[Ni+2] [complex 5, [Ni(flrx)2(MeOH)2]] | 4 µg/mL | 4.6 µM | 4 µg/mL | 4.6 µM | 16 µg/mL | 18.6 µM | 1.75(±0.07) × 10^5 M^−1 | 2.37(±0.13) × 10^13 M^−1s^−1 | 19.2% | 5.76(±0.28) × 10^4 M^−1 | 1.09(±0.03) × 10^13 M^−1s^−1 | 34.1% |
| CN1CCN(c2c(F)cc3c(=O)c(C(=O)[O-])cn(CCF)c3c2F)CC1.CN1CCN(c2c(F)cc3c(=O)c(C(=O)[O-])cn(CCF)c3c2F)CC1.[Co+2].c1cnc2c(c1)ccc1cccnc12 [complex 17, [Co(flrx)2(phen)]] | 8 µg/mL | 8.0 µM | 8 µg/mL | 8.0 µM | 16 µg/mL | 16.0 µM | 1.44(±0.03) × 10^5 M^−1 | 1.50(±0.03) × 10^13 M^−1s^−1 | 26.3% | 5.18(±0.32) × 10^4 M^−1 | 6.49(±0.21) × 10^12 M^−1s^−1 | 44.5% |
| CN1CCN(c2c(F)cc3c(=O)c(C(=O)[O-])cn(CCF)c3c2F)CC1.[Cl-].[Cu+2].c1cnc2c(c1)ccc1cccnc12 [complex 8, [Cu(flrx)(phen)Cl]] | 8 µg/mL | 12.3 µM | 8 µg/mL | 12.3 µM | 8 µg/mL | 12.3 µM | 5.03(±0.22) × 10^4 M^−1 | 1.04(±0.03) × 10^13 M^−1s^−1 | 34.4% | 3.45(±0.14) × 10^4 M^−1 | 4.08(±0.13) × 10^12 M^−1s^−1 | 56.5% |
| CN1CCN(c2c(F)cc3c(=O)c(C(=O)[O-])cn(CCF)c3c2F)CC1.[Cl-].[Cu+2].c1ccc(-c2ccccn2)nc1 [complex 6, [Cu(flrx)(bipy)Cl]] | 8 µg/mL | 12.8 µM | 4 µg/mL | 6.4 µM | 8 µg/mL | 12.8 µM | 6.12(±0.33) × 10^4 M^−1 | 1.59(±0.07) × 10^13 M^−1s^−1 | 25.7% | 1.02(±0.03) × 10^5 M^−1 | 6.08(±0.06) × 10^12 M^−1s^−1 | 48.5% |
